Columns and labels:
[1] = test system: ribosomal S6 protein and MDM2; test: Immunoblot of ribosomal S6 protein and MDM2 phosphorylation (mTORC1/p70S6K signaling); assay type: cell-based, human; conditions: agent added to NRTI-exposed cardiac fibroblasts
Experimental: (§1) Cell culture experiments utilizing NRTIs were of the following design. Cultures of either human lung or cardiac fibroblasts were cultivated according to standard culture protocols for these cells (Cristofalo, et al., Journal of Tissue Culture Methods 1980, 6:117-121). Parallel sets of cultures were maintained in normal growth media or in normal growth media with the addition of 1 nM rapamycin. Cultures were maintained with 1 nM rapamycin (Enzo Biologicals) for two weeks before exposure to NRTIs. Cell cultures were exposed to NRTIs at indicated concentrations in individual experiments (generally 10-20 μg/ml) for 7 days, with a change of media and fresh NRTIs at day 4. Mitochondrial measurements, bioanalyzer measurements, immunoblotting for protein expression and phosphorylation status, and assays for senescence were performed at the end of this 7-day period.
(§2) Cell culture reagents were from Cellgro, unless indicated. WI-38 fetal-lung primary human fibroblasts or human cardiac fibroblasts were grown in MEM supplemented with 10% fetal bovine serum, 1% L-glutamine, MEM vitamins, and MEM non-essential amino acids. Cells were maintained in a 37° C. in 5% CO2 incubator. For treatment studies, cells were treated with 1 nM rapamycin (Enzo Biologicals) for two weeks before treatment with NRTIs. Cells were maintained by trypsinization and reseeding at a cell density of 1×10^4/cm^2 every 7 to 10 days. Emtricitabine (FTC) and tenofovir disoproxil fumarate (TDF) were kindly provided by the NIH AIDS Research & Reference Reagent program. During the 7-day exposure to the NRTIs, the pharmacologic inhibitors PD98059 (10 μM, Santa Cruz Biotechnologies), BI-D1870, GW5074, and SB203580 (10 μM, Enzo Biologicals) were added to the culture medium either during the final 48 hours or for the final 2 hours depending upon the experiment. During the 7-day exposure to NRTIs, Trolox (500 μM) and N-acetylcysteine (100 μM, Acros Organics) were added every other day. Mito-Q (20 nM) and TPP (20 nM) were kindly provided by Dr. Brett Kaufmann at the University of Pennsylvania School of Veterinary Medicine. Vector and mt-catalase adenoviruses (MOI's 25, 50, and 75) were purchased from Gene Transfer Vector Core from the University of Iowa.
Cell protein extracts were prepared by extracting with radioimmunoprecipitation assay (RIPA) buffer containing a protease inhibitor cocktail (Sigma-Aldrich) and phosphatase inhibitors, NaF and sodium orthovanadate. Protein concentration was quantified using a bicinchoninic acid (BCA) assay (Pierce Biotechnology). Western blot analysis was performed using 15 to 30 μg of protein extracts that were run on SDS-PAGE and transferred onto nitrocellulose (Biorad) membranes. Blots were incubated with antibodies specific for: beta-actin (Sigma-Aldrich), TFAm, parkin, p16, phospho(S82)HSP27, HSP27 (Santa Cruz Biotechnologies), p53, 21, catalase, MDM2 (EMD Millipore), VDAC, phospho(S235/236)-ribosomal protein S6, ribosomal protein S6, phospho(S166)-MDM2, phospho(5473)-AKT, AKT, beta-tubulin (Cell Signaling), p62 (Enzo Biologicals), IL-6 (NeoBiolab), lamin B1, PINK1, and Mitoprofile Total OXPHOS Cocktail (complex I-NDUFB8 subunit, CII-SDHB subunit, […]2 subunit, and CIV-mitochondrial COX1 subunit) (Abcam) according to manufacturers' instructions. Western blots were visualized using IRDye 680 and 800 LI-COR secondary antibodies on a LI-COR Odyssey using LI-COR Odyssey software version 3.0 (LI-COR Biosciences). For co-immunoprecipitation, cell protein extracts were prepared in HNTG buffer containing a protease inhibitor cocktail and quantified using BCA assay. Protein extracts at the concentration of 0.5 mg were pre-cleared with protein A/G beads (Santa Cruz Biologicals) for 30 minutes. After centrifugation at 2,000 rpm for 5 minutes at 4° C., the supernatant was incubated with the primary antibody at manufacturer's recommended concentration overnight at 4° C. An IgG antibody (Cell Signaling) was used as a non-specific control.

[2] = test system: seborrheic keratosis lesion; test: Topical treatment of a seborrheic keratosis lesion; assay type: in vivo, human; conditions: 21 days, 10 μM rapamycin in an emulsified gel preparation
Experimental: FIG. 20 is a photograph of a seborrheic keratosis lesion before and after 21 days of treatment with 10 μM rapamycin in an emulsified gel preparation as in FIG. 19.

[3] = test system: human cardiac fibroblasts; test: Immunoblot of senescence markers (p53, p21, p16, lamin B1, IL-6); assay type: cell-based
Experimental: as §1, §2
Cell protein extracts were prepared by extracting with radioimmunoprecipitation assay (RIPA) buffer containing a protease inhibitor cocktail (Sigma-Aldrich) and phosphatase inhibitors, NaF and sodium orthovanadate. Protein concentration was quantified using a bicinchoninic acid (BCA) assay (Pierce Biotechnology). […] For co-immunoprecipitation, cell protein extracts were prepared in HNTG buffer containing a protease inhibitor cocktail and quantified using BCA assay. […]

[4] = test system: human lung fibroblasts; test: Mitochondrial respiration, Seahorse Bioanalyzer, lung fibroblasts; assay type: cell-based; conditions: rapamycin-treated lung fibroblasts
Experimental: Cell culture reagents were from Cellgro, unless indicated. […]
Mitochondrial function was measured using the XF cell mito stress test kit on a Seahorse XF24 Bioanalyzer (Seahorse Bioscience). […] Following acquisition, results were normalized based upon 10^6 cells counted using a Guava EasyCyte Mini (Millipore), where applicable. […] Mitochondrial respiration was calculated based upon oxygen consumption rate measurements in triplicates from cells seeded in at least quadruplicates. […]

With `CO[C@H]1C[C@@H]2CC[C@@H](C)[C@@](O)(O2)C(=O)C(=O)N2CCCC[C@H]2C(=O)O[C@H]([C@H](C)C[C@@H]2CC[C@@H](O)[C@H](OC)C2)CC(=O)[C@H](C)/C=C(\C)[C@@H](O)[C@@H](OC)C(=O)[C@H](C)C[C@H](C)/C=C/C=C/C=C/1C` [rapamycin] the “MDM2 phosphorylation in cells exposed to NRTIs” value [1] was “no increase”, the “ribosomal S6 phosphorylation in cells exposed to NRTIs” value [1] was “complete lack” and the “severity of seborrheic keratosis lesion, visual inspection” value [2] was “significant reduction in severity”. For the same compound, the “NRTI-induced decrease of lamin B1” value ([3]; rapamycin (1 nM)) was “prevented this decrease”, the “levels of IL-6 following exposure to NRTIs” value ([3]; rapamycin treated cells (1 nM)) was “no increase” and the “levels of p53, p21 and p16 on NRTI exposure” value ([3]; rapamycin treated cells (1 nM)) was “did not increase”. The “basal and maximal respiration, proton leak following exposure to NRTIs” value [4] was “no increase”.

Reference: patent US12714698B2, “Compositions and methods for treating or preventing dermal disorders” (Drexel University, priority 2015, dated 2026)
